# Data: patent US12134611B2, “Compounds and compositions for treating conditions associated with NLRP activity” (Novartis AG, priority 2018, dated 2024)
# Target: T1, hNLRP3 (Homo sapiens, UniProt Q96P20)
# T1 construct: THP-1 cells were purchased from the American Type Culture Collection; host or cells: THP-1 cells, PMA-differentiated, stimulated with gramicidin
# Experiment: IL-1β production in PMA-differentiated THP-1 cells stimulated with gramicidin (hTHP-1 assay)
# Type: cell-based
# Settings: read-out: NLRP3 Antagonist, hNLRP3 (THP-1, IL-1b) Normalized: GeoMean IC50
# Protocol: Procedure 1: IL-1β Production in PMA-Differentiated THP-1 Cells Stimulated with Gramicidin.
# THP-1 cells were purchased from the American Type Culture Collection and sub-cultured according to instructions from the supplier. […] Prior to the experiment, compounds were dissolved in dimethyl sulfoxide (DMSO) to generate a 30 mM stock. […] DMSO was backfilled in the plate to achieve a final DMSO assay concentration of 0.37%. The plate was then sealed and stored at room temperature until required.
# THP-1 cells were treated with PMA (Phorbol 12-myristate 13-acetate) (20 ng/ml) for 16-18 hours. On the day of the experiment the media was removed and adherent cells were detached with trypsin for 5 minutes.
# Procedure 2: IL-1β Production in PMA-Differentiated THP-1 Cells Stimulated with Gramicidin.
# THP-1 cells were purchased from the American Type Culture Collection and sub-cultured according to instructions from the supplier. […] Prior to the experiment THP-1 were treated with PMA (Phorbol 12-myristate 13-acetate) (20 ng/ml) for 16-18 hours. Compounds were dissolved in dimethyl sulfoxide (DMSO) to generate a 30 mM stock. On the day of the experiment the media was removed and adherent cells were detached with trypsin for 5 minutes. […] Final DMSO concentration was at 0.37%. Cells were incubated with compounds for 1 hour and then stimulated with gramicidin (5 μM) (Enzo) for 2 hours. Plates were then centrifuged at 340 g for 5 min. Cell free supernatant (40 μL) was collected using a 96-channel PlateMaster (Gilson) and the production of IL-1β was evaluated by HTRF (cisbio).
# 1. Experimental procedure
# 1.2 Compound Preparation • Prepare the 3-fold serial dilution of the compounds with DMSO in a 384-well LDV Microplate using TECAN EVO system to generate the compound source plate with 10 concentrations. Top concentration is 30 mM. FIG. 5 depicts the layout of the microplate.
# FIG. 5 depicts the layout of the plates: HC: 100 μM CRID3 (MCC950)+5 μM gramicidin LC: 5 μM Gramicidin.
# 1.5 IL-1β Detection • 1) Homogenize the 5× diluent #5 with a vortex and add 1 volume of stock solution in 4 volumes of distilled water. • 2) Thaw 20× stock solution of anti-IL1β-Cryptate-antibody and anti-IL1β XL-antibody. […] 2. Data Analysis: • 1.
# T1 sequence (Q96P20 whole entry): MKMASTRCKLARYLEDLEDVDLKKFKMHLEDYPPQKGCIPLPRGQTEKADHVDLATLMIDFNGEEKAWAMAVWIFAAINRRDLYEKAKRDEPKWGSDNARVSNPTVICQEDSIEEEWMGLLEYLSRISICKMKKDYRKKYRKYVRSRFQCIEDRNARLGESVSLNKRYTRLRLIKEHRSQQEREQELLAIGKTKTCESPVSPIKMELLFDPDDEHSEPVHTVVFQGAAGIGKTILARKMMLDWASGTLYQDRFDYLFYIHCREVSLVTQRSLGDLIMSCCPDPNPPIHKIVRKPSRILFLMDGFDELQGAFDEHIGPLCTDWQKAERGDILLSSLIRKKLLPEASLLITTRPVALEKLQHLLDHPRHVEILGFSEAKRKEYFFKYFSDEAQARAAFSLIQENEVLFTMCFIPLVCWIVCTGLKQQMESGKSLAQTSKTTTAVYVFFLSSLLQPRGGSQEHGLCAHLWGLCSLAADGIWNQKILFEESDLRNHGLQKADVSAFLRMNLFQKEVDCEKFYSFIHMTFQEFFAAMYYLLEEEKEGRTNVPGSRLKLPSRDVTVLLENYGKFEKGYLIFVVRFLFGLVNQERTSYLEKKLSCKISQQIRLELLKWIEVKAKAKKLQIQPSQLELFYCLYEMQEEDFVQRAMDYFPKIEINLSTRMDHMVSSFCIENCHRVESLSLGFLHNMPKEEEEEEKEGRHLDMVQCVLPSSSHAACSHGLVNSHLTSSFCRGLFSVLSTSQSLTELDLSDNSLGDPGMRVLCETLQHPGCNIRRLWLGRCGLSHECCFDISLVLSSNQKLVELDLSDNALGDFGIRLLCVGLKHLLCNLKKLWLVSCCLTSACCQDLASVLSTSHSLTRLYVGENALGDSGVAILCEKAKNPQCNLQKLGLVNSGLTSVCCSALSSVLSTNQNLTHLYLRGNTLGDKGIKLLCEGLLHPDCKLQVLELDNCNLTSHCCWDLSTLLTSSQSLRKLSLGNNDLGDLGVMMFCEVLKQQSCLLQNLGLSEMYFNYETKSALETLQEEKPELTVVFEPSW
row,SMILES,IC50 [µM]
1,"CC(C)(O)c1ccc2c(c1)S(=O)(=NC(=O)Nc1c3c(cc4c1CCC4)CCC3)NC2=O (racemic) [Compound 127, 1-(1,2,3,5,6,7-hexahydro-s-indacen-4-yl)-3-[6-(2-hydroxypropan-2-yl)-1,3-dioxo-2,3-dihydro-1-^λ-6,2-benzothiazol-1-ylidene]urea]",0.2 to 1
2,"O=C(N=S1(=O)NC(=O)c2ccccc21)Nc1c2c(cc3c1CCC3)CCC2 (racemic) [Compound 129, 3-(1,3-dioxo-2,3-dihydro-1-^λ-6,2-benzothiazol-1-ylidene)-1-(1,2,3,5,6,7-hexahydro-s-indacen-4-yl)urea]",1 to 5
3,"CC1(C)CS(=O)(=NC(=O)Nc2c3c(cc4c2CCC4)CCC3)NC1=O (single isomer, unassigned) [Compound 102a, (S or R)-1-(4,4-dimethyl-1-oxido-3-oxo-1l6-isothiazolidin-1-ylidene)-3-(1,2,3,5,6,7-hexahydro-s-indacen-4-yl)urea]",0.2 to 1
4,"CC1(C)CS(=O)(=NC(=O)Nc2c3c(cc4c2CCC4)CCC3)NC1=O (single isomer, unassigned) [Compound 102b, (R or S)-1-(4,4-dimethyl-1-oxido-3-oxo-1l6-isothiazolidin-1-ylidene)-3-(1,2,3,5,6,7-hexahydro-s-indacen-4-yl)urea]",5 to 30
5,"O=C(N=S1(=O)NC(=O)c2ccc(Br)cc21)Nc1c2c(cc3c1CCC3)CCC2 (single isomer, unassigned) [Compound 103a, (R or S)-1-(6-bromo-1-oxido-3-oxo-2,3-dihydro-1l4-benzo[d]isothiazol-1-ylidene)-3-(1,2,3,5,6,7-hexahydro-s-indacen-4-yl)urea]",> 30
6,"O=C(N=S1(=O)NC(=O)c2ccc(Br)cc21)Nc1c2c(cc3c1CCC3)CCC2 (single isomer, unassigned) [Compound 103b, (S or R)-1-(6-bromo-1-oxido-3-oxo-2,3-dihydro-1l4-benzo[d]isothiazol-1-ylidene)-3-(1,2,3,5,6,7-hexahydro-s-indacen-4-yl)urea]",5 to 30
7,"CC(C)c1cc2c(c(C(C)C)c1CC(=O)N=S1(=O)NC(=O)c3ccc(C(C)(C)O)cc31)COC2 (single isomer, unassigned) [Compound 104a, (S or R)-2-(4,6-diisopropyl-1,3-dihydroisobenzofuran-5-yl)-N-(6-(2-hydroxypropan-2-yl)-1-oxido-3-oxo-2,3-dihydro-1l4-benzo[d]isothiazol-1-ylidene)acetamide]",> 30
8,"CC(C)(O)c1ccc2c(c1)S(=O)(=NC(=O)Nc1c3c(nc(C4CC4)c1C1CC1)CCC3)NC2=O (single isomer, unassigned) [Compound 106a, 1(R or S)-1-(2,3-dicyclopropyl-6,7-dihydro-5H-cyclopenta[b]pyridin-4-yl)-3-(6-(2-hydroxypropan-2-yl)-1-oxido-3-oxo-2,3-dihydro-1l4-benzo[d]isothiazol-1-ylidene)urea]",1 to 5
9,"CC(C)(O)c1ccc2c(c1)S(=O)(=NC(=O)Nc1c3c(nc(C4CC4)c1C1CC1)CCC3)NC2=O (single isomer, unassigned) [Compound 106b, 1(S or R)-1-(2,3-dicyclopropyl-6,7-dihydro-5H-cyclopenta[b]pyridin-4-yl)-3-(6-(2-hydroxypropan-2-yl)-1-oxido-3-oxo-2,3-dihydro-1l4-benzo[d]isothiazol-1-ylidene)urea]",> 30
10,"CN1Cc2ccccc2S1(=O)=NC(=O)Nc1c2c(cc3c1CCC3)CCC2 (single isomer, unassigned) [Compound 107a]",> 30
11,"Cc1c(C(F)(F)F)nc2c(c1NC(=O)N=S1(=O)NC(=O)c3ccc(C(C)(C)O)cc31)CCC2 (single isomer, unassigned) [Compound 108a, (R or S)-1-(6-(2-hydroxypropan-2-yl)-1-oxido-3-oxo-2,3-dihydro-1l4-benzo[d]isothiazol-1-ylidene)-3-(3-methyl-2-(trifluoromethyl)-6,7-dihydro-5H-cyclopenta[b]pyridin-4-yl)urea]",0.2 to 1
12,"Cc1c(C(F)(F)F)nc2c(c1NC(=O)N=S1(=O)NC(=O)c3ccc(C(C)(C)O)cc31)CCC2 (single isomer, unassigned) [Compound 108b, (S or R)-1-(6-(2-hydroxypropan-2-yl)-1-oxido-3-oxo-2,3-dihydro-1l4-benzo[d]isothiazol-1-ylidene)-3-(3-methyl-2-(trifluoromethyl)-6,7-dihydro-5H-cyclopenta[b]pyridin-4-yl)urea]",> 30
13,"CC(C)(O)c1ccc2c(c1)S(=O)(=NC(=O)Nc1c3c(cc4c1CC4)CCC3)NC2=O (single isomer, unassigned) [Compound 112a, (R or S)-1-(6-(2-hydroxypropan-2-yl)-1-oxido-3-oxo-2,3-dihydro-1l4-benzo[d]isothiazol-1-ylidene)-3-(2,4,5,6-tetrahydro-1H-cyclobuta[f]inden-3-yl)urea]",0.04 to 0.2
14,"CC(C)(O)c1ccc2c(c1)S(=O)(=NC(=O)Nc1c3c(cc4c1CC4)CCC3)NC2=O (single isomer, unassigned) [Compound 112b, (S or R)-1-(6-(2-hydroxypropan-2-yl)-1-oxido-3-oxo-2,3-dihydro-1l4-benzo[d]isothiazol-1-ylidene)-3-(2,4,5,6-tetrahydro-1H-cyclobuta[f]inden-3-yl)urea]",1 to 5
15,"O=C1CCCS(=O)(=NC(=O)Nc2c3c(cc4c2CCC4)CCC3)N1 (single isomer, unassigned) [Compound 113a, (S or R)-1-(1,2,3,5,6,7-hexahydro-s-indacen-4-yl)-3-(1-oxido-3-oxo-1l6,2-thiazinan-1-ylidene)urea]",0.2 to 1
16,"CC(C)(O)c1ccc2c(c1)S(=O)(=NC(=O)Cc1c3c(cc4c1CCC4)CCC3)NC2=O (single isomer, unassigned) [Compound 115a, (S or R)-2-(1,2,3,5,6,7-hexahydro-s-indacen-4-yl)-N-(6-(2-hydroxypropan-2-yl)-1-oxido-3-oxo-2,3-dihydro-1l4-benzo[d]isothiazol-1-ylidene)acetamide]",5 to 30
17,"O=C(N=S1(=O)CCCN1)Nc1c2c(cc3c1CCC3)CCC2 (single isomer, unassigned) [Compound 119a, (R or S)-1-(1,2,3,5,6,7-hexahydro-s-indacen-4-yl)-3-(1-oxido-1l6-isothiazolidin-1-ylidene)urea]",5 to 30
18,"CC(C)(O)c1ccc2c(c1)C(=O)NS2(=O)=NC(=O)Nc1c2c(cc3c1CCC3)CCC2 (single isomer, unassigned) [Compound 121a, (R or S)-1-(1,2,3,5,6,7-hexahydro-s-indacen-4-yl)-3-(5-(2-hydroxypropan-2-yl)-1-oxido-3-oxo-2,3-dihydro-1l4-benzo[d]isothiazol-1-ylidene)urea]",0.2 to 1
19,"CC(C)(O)c1ccc2c(c1)C(=O)NS2(=O)=NC(=O)Nc1c2c(cc3c1CCC3)CCC2 (single isomer, unassigned) [Compound 121b, (S or R)-1-(1,2,3,5,6,7-hexahydro-s-indacen-4-yl)-3-(5-(2-hydroxypropan-2-yl)-1-oxido-3-oxo-2,3-dihydro-1l4-benzo[d]isothiazol-1-ylidene)urea]",5 to 30
20,"CC(C)(O)c1ccc2c(c1)S(=O)(=NC(=O)Nc1c3c(cc4c1CCC4)CCC3)NC2=O (single isomer, unassigned) [Compound 127a, (R or S)-1-(1,2,3,5,6,7-hexahydro-s-indacen-4-yl)-3-(6-(2-hydroxypropan-2-yl)-1-oxido-3-oxo-2,3-dihydro-1l4-benzo[d]isothiazol-1-ylidene)urea]",0.04 to 0.2
21,"CC(C)(O)c1ccc2c(c1)S(=O)(=NC(=O)Nc1c3c(cc4c1CCC4)CCC3)NC2=O (single isomer, unassigned) [Compound 127b, (S or R)-1-(1,2,3,5,6,7-hexahydro-s-indacen-4-yl)-3-(6-(2-hydroxypropan-2-yl)-1-oxido-3-oxo-2,3-dihydro-1l4-benzo[d]isothiazol-1-ylidene)urea]",5 to 30
22,"O=C(N=S1(=O)NC(=O)c2ccccc21)Nc1c2c(cc3c1CCC3)CCC2 (single isomer, unassigned) [Compound 129a, 3-[(1R or 1S)-1,3-dioxo-2,3-dihydro-1-^λ-6,2-benzothiazol-1-ylidene]-1-(1,2,3,5,6,7-hexahydro-s-indacen-4-yl)urea]",0.2 to 1
23,"O=C(N=S1(=O)NC(=O)c2ccccc21)Nc1c2c(cc3c1CCC3)CCC2 (single isomer, unassigned) [Compound 129b, 3-[(1S or 1R)-1,3-dioxo-2,3-dihydro-1-^λ-6,2-benzothiazol-1-ylidene]-1-(1,2,3,5,6,7-hexahydro-s-indacen-4-yl)urea]",5 to 30
